This is an account of results in US20230248833A1, “COMPOUND HAVING BTK KINASE DEGRADING ACTIVITY, AND PREPARATION METHOD AND PHARMACEUTICAL USE THEREFOR” (SICHUAN HAISCO PHARMACEUTICAL CO., LTD., priority 2020, published 2023).

Usually IC50 stands for the concentration needed to halve the response being measured. One may read the AUC(0-t) as exposure summed from dosing to a finite time, without extrapolation to infinity. By bioavailability is commonly meant the share of a dose that reaches the circulation, judged against a reference dose that is usually intravenous. A high value points to much systemic uptake.

In series [1] the test system is Mino cells. Put plainly: Inhibition of cell proliferation, Mino cells (Cell Viability Assay, 72 h). In kind it is cell-based, human. The note with it: for IC50: Homo sapiens, MINO, 72 h; for Mino Max inhi. %: inhibition rate at the highest concentration of the compound. The protocol:
SU-DHL-4, Mino, and SU-DHL-6 cells, in the culture medium of RPMI1640+10% FBS, were cultured in an incubator at 37° C. under 5% CO2. Cells were plated in a 96-well plate. Specifically, SU-DHL-4 cells were at 20000/well, Mino and SU-DHL-6 cells were at 5000/well, with 90 μL/well. 10 μL of the compounds at different concentrations were added to each well. There were 3 replicate wells for each concentration, and the last column, added with DMSO, was used as a vehicle control group. The cultures were continued for 72 hours at 37° C. under 5% CO2. After 72 hours, 100 μL of detection reagent (Cell Viability Assay, Promega, G7573) was added to each well, and the cultures were uniformly mixed for 2 minutes, and incubated at room temperature for 10 minutes. The […] signal value was measured with a microplate reader (PHERAstar FSX). The IC50 value of the compound on cell proliferation inhibition was calculated using origin9.2 software, and the inhibition rate at the highest concentration of the compound (Max inhi.%) was calculated according to formula (1).
Max inhi.%=(1−T72administration/T72vehicle)×100 Formula (1).

A short description of series [2]: Pharmacokinetic experiment in rats. The conditions noted are these: male, SD, rat, po, plasma, i.g. (20 mg/kg); for AUC(0-t): single dose. In kind it is in vivo. On the procedure: Experimental objective: In this experiment, a single dose of each test compound was administered to SD rats intravenously and intragastrically, the concentrations of the test compound in plasma of rats were measured, and the pharmacokinetic characteristics and bioavailability of the test compound in rats were evaluated.
Experimental animals: Male SD rats, about 200 g, 6-8 weeks old, 6 rats/compound. Rats were purchased from Hunan SJA Laboratory Animal Co., Ltd, with the laboratory animal production license number of SCXK (Xiang) 2019-004.
Experimental method: On the day of the experiment, 6 SD rats were randomly grouped according to their body weight. The animals were fasted with water available for 12 to 14 hours one day before the administration of a test compound, and were fed 4 hours after the administration.
Before and after the administration, […] of blood was taken from the orbit of the rats under isoflurane anesthesia, and placed in an EDTAK2 centrifuge tube. Centrifugation was carried out at 5000 rpm at 4° C. for 10 min, and the plasma was collected.
Time points for sample collection in G1&G2 groups comprise
Before analysis and detection, all samples were stored at −80° C. The samples were detected by HPLC-MS/MS.

In series [1], `Nc1ncnc2c1c(-c1ccc(Oc3ccccc3)cc1)nn2C1CC2(CCN(C3CN(C4CN(c5ccc6c(c5)C(=O)N(C5CCC(=O)NC5=O)C6=O)C4)C3)CC2)C1` (stereo not shown) [Compound 65, 5-(3-(2-(4-amino-3-(4-phenoxyphenyl)-1H-pyrazolo[3,4-d]pyrimidin-1-yl)-7-azaspiro[3.5]nonan-7-yl)-[1,3′-biazetidin]-1′-yl)-2-(2,6-dioxopiperidin-3-yl) isoindoline-1,3-dione] had an IC50 of 14 nM.

Take `Nc1ncnc2c1c(-c1ccc(Oc3ccccc3)cc1)nn2C1CC2(CCN(C3CC4(CCN(c5ccc6c(c5)C(=O)N(C5CCC(=O)NC5=O)C6=O)CC4)C3)CC2)C1` (stereo not shown) [Compound 66, 5-(2′-(4-amino-3-(4-phenoxyphenyl)-1H-pyrazolo[3,4-d]pyrimidin-1-yl)-7,7′-diaza[2,7′-bispiro[3.5]nonan]-7-yl)-2-(2,6-dioxopiperidin-3-yl)isoindoline-1,3-dione]: half-maximal inhibition in series [1] (IC50) was put at 27 nM. Compared with the last molecule, the IC50 is about 1.9-fold higher. For the molecule `Nc1ncnc2c1c(-c1ccc(Oc3ccccc3)cc1)nn2C1CCN(C2(C(F)(F)F)CCN(C3CN(c4ccc5c(c4)C(=O)N(C4CCC(=O)NC4=O)C5=O)C3)CC2)CC1` (stereo not shown) [Compound 70, 5-(3-(4-(4-amino-3-(4-phenoxyphenyl)-1H-pyrazolo[3,4-d]pyrimidin-1-yl)-4′-(trifluoromethyl)-[1,4′-bipiperidin]-1′-yl)azetidin-1-yl)-2-(2,6-dioxopiperidin-3-yl)isoindoline-1,3-dione], the IC50 in series [1] was determined as 101 nM. With `Nc1ncnc2c1c(-c1ccc(Oc3ccccc3)cc1)nn2C1CCN(C2CN(C3CN(C(=O)CC45CC6CC(CC(C6)C4)C5)C3)C2)CC1` [Compound 72, 2-(1-adamantyl)-1-[3-[3-[4-[4-amino-3-(4-phenoxyphenyl)pyrazolo[3,4-d]pyrimidin-1-yl]-1-piperidyl]azetidin-1-yl]azetidin-1-yl]ethanone], in series [1], the IC50 lay within 10 to 1000 nM and the “Mino Max inhi. %” value worked out at 88.5%. Regarding `Nc1ncnc2c1c(-c1ccc(Oc3ccccc3)cc1)nn2C1CCN(C2CCN(C3CN(C(=O)CC45CC6CC(CC(C6)C4)C5)C3)CC2)CC1` [Compound 73, 2-(1-adamantyl)-1-(3-(4-(4-amino-3-(4-phenoxyphenyl)pyrazolo[3,4-d]pyrimidin-1-yl)-[1,4′-bipiperidin]-1′-yl)azetidin-1-yl)ethan-1-one], in series [1], the “Mino Max inhi. %” value worked out at 99.8%. On the same count and under the same terms, then `Nc1ncnc2c1c(-c1ccc(Oc3ccccc3)cc1)nn2C1CCN(C2CN(C(=O)CC34CC5CC(CC(C5)C3)C4)C2)CC1` [Compound 74, 2-((3r,5r,7r)-adamantan-1-yl)-1-(3-(4-(4-amino-3-(4-phenoxyphenyl)-1H-pyrazolo[3,4-d]pyrimidin-1-yl)piperidin-1-yl)azetidin-1-yl)ethanone], with 88.3%. `Nc1ncnc2c1c(-c1ccc(Oc3ccccc3)cc1)nn2C1CCC2(CC1)CN(C1CN(c3ccc4c(c3)C(=O)N(C3CCC(=O)NC3=O)C4=O)C1)C2` (stereo not shown) [Compound 75, 5-(3-(7-(4-amino-3-(4-phenoxyphenyl)-1H-pyrazolo[3,4-d]pyrimidin-1-yl)-2-azaspiro[3.5]nonan-2-yl)azetidin-1-yl)-2-(2,6-dioxopiperidin-3-yl)isoindoline-1,3-dione] came in with an IC50 in series [1] of 37 nM. For `Nc1ncnc2c1c(-c1ccc(Oc3ccccc3)cc1)nn2C1CCN(C2CN(C3CN(c4ccc5c(n4)CN(C4CCC(=O)NC4=O)C5=O)C3)C2)CC1` (stereo not shown) [Compound 76, 3-(2-(3-(4-(4-amino-3-(4-phenoxyphenyl)-1H-pyrazolo[3,4-d]pyrimidin-1-yl)piperidin-1-yl)-[1,3′-biazetidin]-1′-yl)-5-oxo-5,7-dihydro-6H-pyrrolo[3,4-b]pyridin-6-yl)piperidine-2,6-dione], half-maximal inhibition in series [1] (IC50) required 141 nM.

In the case of `NC(=O)c1c(-c2ccc(Oc3ccccc3)cc2)nn2c1NCC[C@H]2C1CCN(C2CN(CC3CN(c4ccc5c(c4)C(=O)N(C4CCC(=O)NC4=O)C5=O)C3)C2)CC1` (stereo partly drawn) [Compound 80, (7S)-7-(1-(1-((1-(2-(2,6-dioxopiperidin-3-yl)-1,3-dioxoisoindolin-5-yl)azetidin-3-yl)methyl)azetidin-3-yl)piperidin-4-yl)-2-(4-phenoxyphenyl)-4,5,6,7-tetrahydropyrazolo[1,5-a]pyrimidine-3-carboxamide], the “Mino Max inhi. %” value in series [1] was 99.1%. Turning to `NC(=O)c1c(-c2ccc(Oc3ccccc3)cc2)nn2c1NCC[C@H]2C1CCN(C2CCN(CC3CCN(c4ccc5c(c4)C(=O)N(C4CCC(=O)NC4=O)C5=O)CC3)CC2)CC1` (stereo partly drawn) [Compound 81, (7S)-7-(1′-((1-(2-(2,6-dioxopiperidin-3-yl)-1,3-dioxoisoindolin-5-yl)piperidin-4-yl)methyl)-[1,4′-bipiperidin]-4-yl)-2-(4-phenoxyphenyl)-4,5,6,7-tetrahydropyrazolo[1,5-a]pyrimidine-3-carboxamide], the “Mino Max inhi. %” value in series [1] is recorded as 99.9%.

On to `NC(=O)c1c(-c2ccc(Oc3ccccc3)cc2)nn2c1NCC[C@H]2C1CCN(C2CCN(CC3CN(c4ccc5c(c4)C(=O)N(C4CCC(=O)NC4=O)C5=O)C3)CC2)CC1` (stereo partly drawn) [Compound 82, (7S)-7-(1′-((1-(2-(2,6-dioxopiperidin-3-yl)-1,3-dioxoisoindolin-5-yl)azetidin-3-yl)methyl)-[1,4′-bipiperidin]-4-yl)-2-(4-phenoxyphenyl)-4,5,6,7-tetrahydropyrazolo [1,5-a]pyrimidine-3-carboxamide], for which the “Mino Max inhi. %” value in series [1] is 99.9%. As to `NC(=O)c1c(-c2ccc(Oc3ccccc3)cc2)nn2c1NCC[C@H]2C1CCN(CC2CCN(c3ccc4c(c3)C(=O)N(C3CCC(=O)NC3=O)C4=O)CC2)CC1` (stereo partly drawn) [Compound 83, (7S)-7-(1-((1-(2-(2,6-dioxopiperidin-3-yl)-1,3-dioxoisoindolin-5-yl)piperidin-4-yl)methyl)piperidin-4-yl)-2-(4-phenoxyphenyl)-4,5,6,7-tetrahydropyrazolo[1,5-a]pyrimidine-3-carboxamide], the “Mino Max inhi. %” value in series [1] was 99.7%. `Nc1ncnc2c1c(-c1ccc(Oc3ccccc3)cc1)nn2C1CCN(C2CCN(CC3CN(c4ccc5c(c4)C(=O)N(C4CCC(=O)NC4=O)C5=O)C3)CC2)CC1` (stereo not shown) [Compound 84, 5-(3-((4-(4-amino-3-(4-phenoxyphenyl)-1H-pyrazolo[3,4-d]pyrimidin-1-yl)-[1,4′-bipiperidin]-1′-yl)methyl)azetidin-1-yl)-2-(2,6-dioxopiperidin-3-yl)isoindoline-1,3-dione]: the IC50 in series [1] was 32 nM. In series [2], this molecule came in with an AUC(0-t) of 176 ± 57 ng·h/mL. In the same order, the values of `Nc1ncnc2c1c(-c1ccc(Oc3ccccc3)cc1)nn2C1CCN(C2CCN(CC3CCN(c4ccc5c(c4)C(=O)N(C4CCC(=O)NC4=O)C5=O)CC3)CC2)CC1` (stereo not shown) [Compound 86, 5-(4-((4-(4-amino-3-(4-phenoxyphenyl)-1H-pyrazolo[3,4-d]pyrimidin-1-yl)-[1,4′-bipiperidin]-1′-yl)methyl)piperidin-1-yl)-2-(2,6-dioxopiperidin-3-yl)isoindoline-1,3-dione] are 42 nM and 247 ± 73 ng·h/mL. The molecule `Nc1ncnc2c1c(-c1ccc(Oc3ccccc3)c(F)c1)nn2C1CCN(C2CN(C3CN(c4ccc5c(c4)C(=O)N(C4CCC(=O)NC4=O)C5=O)C3)C2)CC1` (stereo not shown) [Compound 95, 5-(3-(4-(4-amino-3-(3-fluoro-4-phenoxyphenyl)-1H-pyrazolo[3,4-d]pyrimidin-1-yl)piperidin-1-yl)-[1,3′-biazetidin]-1′-yl)-2-(2,6-dioxopiperidin-3-yl)isoindoline-1,3-dione] displayed an IC50 in series [1] of 100 nM. This molecule also showed a bioavailability in series [2] (bioavailability) of 12.3 ± 2.1%. Also, the AUC(0-t) in series [2] came out at 4270 ± 739 ng·h/mL. As to `Nc1ncnc2c1c(-c1ccc(Oc3ccccc3)c(F)c1)nn2C1CCN(C2CCN(C3CN(c4ccc5c(c4)C(=O)N(C4CCC(=O)NC4=O)C5=O)C3)CC2)CC1` (stereo not shown) [Compound 96, 5-(3-(4-(4-amino-3-(3-fluoro-4-phenoxyphenyl)-1H-pyrazolo[3,4-d]pyrimidin-1-yl)-[1,4′-bipiperidin]-1′-yl)azetidin-1-yl)-2-(2,6-dioxopiperidin-3-yl)isoindoline-1,3-dione], in series [1], the IC50 turned out to be 501 nM. That is a sub-micromolar value. Regarding `Nc1ncnc2c1c(-c1ccc(Oc3ccccc3)cc1)nn2C1CCN(C2CN(CC3CN(c4ccc5c(c4)CN(C4CCC(=O)NC4=O)C5=O)C3)C2)CC1` (stereo not shown) [Compound 107, 3-(5-(3-((3-(4-(4-amino-3-(4-phenoxyphenyl)-1H-pyrazolo[3,4-d]pyrimidin-1-yl)piperidin-1-yl)azetidin-1-yl)methyl)azetidin-1-yl)-1-oxoisoindolin-2-yl)piperidine-2,6-dione], in series [2], the AUC(0-t) was found to be 610 ± 131 ng·h/mL.
